{"source": "PubChem BioAssay (NCI)", "test_in_all_cases": "inhibition of tumour cell growth, NCI panel, 48 h", "key": {"MDA-N": {"tested_on": "MDA-N"}, "MOLT-4 leukemia": {"tested_on": "MOLT-4 leukemia"}, "NCI-H226 lung": {"tested_on": "NCI-H226 lung"}, "NCI-H23 lung": {"tested_on": "NCI-H23 lung"}, "NCI-H460 lung": {"tested_on": "NCI-H460 lung"}, "NCI-H522 lung": {"tested_on": "NCI-H522 lung"}, "NCI/ADR-RES ovarian": {"tested_on": "NCI/ADR-RES ovarian"}, "OVCAR-3 ovarian": {"tested_on": "OVCAR-3 ovarian"}, "OVCAR-4 ovarian": {"tested_on": "OVCAR-4 ovarian"}, "OVCAR-5 ovarian": {"tested_on": "OVCAR-5 ovarian"}, "OVCAR-8 ovarian": {"tested_on": "OVCAR-8 ovarian"}, "RPMI-8226 leukemia": {"tested_on": "RPMI-8226 leukemia"}, "RXF 393 renal": {"tested_on": "RXF 393 renal"}, "SF-268 CNS": {"tested_on": "SF-268 CNS"}, "SF-295 CNS": {"tested_on": "SF-295 CNS"}, "SF-539 CNS": {"tested_on": "SF-539 CNS"}, "SK-MEL-2 melanoma": {"tested_on": "SK-MEL-2 melanoma"}, "SK-MEL-28 melanoma": {"tested_on": "SK-MEL-28 melanoma"}, "SK-MEL-5 melanoma": {"tested_on": "SK-MEL-5 melanoma"}, "SK-OV-3 ovarian": {"tested_on": "SK-OV-3 ovarian"}, "SNB-19 CNS": {"tested_on": "SNB-19 CNS"}, "SNB-75 CNS": {"tested_on": "SNB-75 CNS"}, "SR leukemia": {"tested_on": "SR leukemia"}, "SW-620 colon": {"tested_on": "SW-620 colon"}, "T-47D breast": {"tested_on": "T-47D breast"}, "TK-10 renal": {"tested_on": "TK-10 renal"}, "U251 CNS": {"tested_on": "U251 CNS"}, "UACC-257 melanoma": {"tested_on": "UACC-257 melanoma"}, "UACC-62 melanoma": {"tested_on": "UACC-62 melanoma"}, "UO-31 renal": {"tested_on": "UO-31 renal"}}, "note": "Values joined by “and” are separate entries in the source; they are usually repeats but may differ in a detail not shown here. Identical values can stand only once.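 Interpolation was linear, between the two tested concentrations surrounding the appropriate level; five concentrations were tested over 48 hours in 96-well plates. The concentration for 50% growth inhibition is given as GI50. TGI marks complete inhibition of growth.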"}
{"smiles": "CC(C)[C@]12O[C@H]1[C@@H]1O[C@]13[C@]1(O[C@H]1C[C@H]1C4=C(CC[C@@]13C)C(=O)OC4)[C@@H]2O", "values": [{"measurement": "TGI", "setting": "MDA-N", "value": 23.8, "unit": "nM"}, {"measurement": "GI50", "setting": "MOLT-4 leukemia", "value": 12.8, "unit": "nM"}, {"measurement": "TGI", "setting": "MOLT-4 leukemia", "value": 34.8, "unit": "nM"}, {"measurement": "GI50", "setting": "NCI-H226 lung", "value": "< 11", "unit": "nM"}, {"measurement": "TGI", "setting": "NCI-H226 lung", "value": "73.1 nM and 120 nM"}, {"measurement": "TGI", "setting": "NCI-H23 lung", "value": 15.6, "unit": "nM"}, {"measurement": "GI50", "setting": "NCI-H460 lung", "value": "< 10", "unit": "nM"}, {"measurement": "TGI", "setting": "NCI-H460 lung", "value": "> 100000", "unit": "nM"}, {"measurement": "GI50", "setting": "NCI-H522 lung", "value": 11.4, "unit": "nM"}, {"measurement": "TGI", "setting": "NCI-H522 lung", "value": "157 nM and 36.6 nM"}, {"measurement": "TGI", "setting": "NCI/ADR-RES ovarian", "value": 92.2, "unit": "nM"}, {"measurement": "GI50", "setting": "OVCAR-3 ovarian", "value": 19.8, "unit": "nM"}, {"measurement": "TGI", "setting": "OVCAR-3 ovarian", "value": "93.2 nM and 377 nM"}, {"measurement": "GI50", "setting": "OVCAR-4 ovarian", "value": 17.4, "unit": "nM"}, {"measurement": "GI50", "setting": "OVCAR-5 ovarian", "value": "32.5 nM and 28.2 nM"}, {"measurement": "TGI", "setting": "OVCAR-5 ovarian", "value": "> 100000", "unit": "nM"}, {"measurement": "GI50", "setting": "OVCAR-8 ovarian", "value": 28.5, "unit": "nM"}, {"measurement": "GI50", "setting": "RPMI-8226 leukemia", "value": "3.6 nM and 11 nM"}, {"measurement": "TGI", "setting": "RPMI-8226 leukemia", "value": "26.5 nM and 91.5 nM"}, {"measurement": "GI50", "setting": "RXF 393 renal", "value": "17.2 nM and < 10.7 nM"}, {"measurement": "TGI", "setting": "RXF 393 renal", "value": "35.3 nM and < 16.9 nM"}, {"measurement": "TGI", "setting": "SF-268 CNS", "value": "241 nM and 218 nM"}, {"measurement": "TGI", "setting": "SF-295 CNS", "value": "646 nM and 934 nM"}, {"measurement": "GI50", "setting": "SF-539 CNS", "value": 14.6, "unit": "nM"}, {"measurement": "TGI", "setting": "SF-539 CNS", "value": "26 nM and 35.8 nM"}, {"measurement": "GI50", "setting": "SK-MEL-2 melanoma", "value": 15.7, "unit": "nM"}, {"measurement": "TGI", "setting": "SK-MEL-2 melanoma", "value": "19.5 nM and 32.3 nM"}, {"measurement": "GI50", "setting": "SK-MEL-28 melanoma", "value": 11.9, "unit": "nM"}, {"measurement": "TGI", "setting": "SK-MEL-28 melanoma", "value": "22.6 nM and 32 nM"}, {"measurement": "GI50", "setting": "SK-MEL-5 melanoma", "value": 13.1, "unit": "nM"}, {"measurement": "TGI", "setting": "SK-MEL-5 melanoma", "value": "21.3 nM and 26.5 nM"}, {"measurement": "TGI", "setting": "SK-OV-3 ovarian", "value": "> 100000", "unit": "nM"}, {"measurement": "GI50", "setting": "SNB-19 CNS", "value": 62.7, "unit": "nM"}, {"measurement": "TGI", "setting": "SNB-19 CNS", "value": "> 100000", "unit": "nM"}, {"measurement": "GI50", "setting": "SNB-75 CNS", "value": 16.8, "unit": "nM"}, {"measurement": "TGI", "setting": "SNB-75 CNS", "value": "35 nM and 39.8 nM"}, {"measurement": "GI50", "setting": "SR leukemia", "value": 7.13, "unit": "nM"}, {"measurement": "TGI", "setting": "SR leukemia", "value": 48.8, "unit": "nM"}, {"measurement": "GI50", "setting": "SW-620 colon", "value": "< 10", "unit": "nM"}, {"measurement": "GI50", "setting": "T-47D breast", "value": "21.1 nM and 29.2 nM"}, {"measurement": "GI50", "setting": "TK-10 renal", "value": 27.8, "unit": "nM"}, {"measurement": "TGI", "setting": "TK-10 renal", "value": "> 100000", "unit": "nM"}, {"measurement": "GI50", "setting": "U251 CNS", "value": 37.9, "unit": "nM"}, {"measurement": "TGI", "setting": "U251 CNS", "value": "> 100000", "unit": "nM"}, {"measurement": "GI50", "setting": "UACC-257 melanoma", "value": "10.1 nM and 14.8 nM"}, {"measurement": "TGI", "setting": "UACC-257 melanoma", "value": "34.1 nM and 47.6 nM"}, {"measurement": "GI50", "setting": "UACC-62 melanoma", "value": 11, "unit": "nM"}, {"measurement": "TGI", "setting": "UACC-62 melanoma", "value": "24.1 nM and 26 nM"}, {"measurement": "GI50", "setting": "UO-31 renal", "value": 18.3, "unit": "nM"}, {"measurement": "TGI", "setting": "UO-31 renal", "value": "> 100000", "unit": "nM"}]}
